Usually ED50 stands for the midpoint of the dose-response relation.

This is an account of results in patent US7049094B2, “Methods for identifying modulators of N-type ion channel inactivation” (Wyeth, priority 1999, dated 2006).

One assay concerns the target T1, hKv1.4 channels (Homo sapiens, UniProt P22459).
T1 construct: expressed in transfected cells; host or cells: CHO cells
Description: Elimination of N-type inactivation of hKv1.4 channels (CHO cells). Particulars: glutathione keeps channels in reduced (inactivating) state. The assay is classed as cell-based. How it is done:
Compounds active in the yeast assay were examined for their ability to disrupt N-type Kv channel inactivation in CHO cells transfected with hKv1.1 alone, hKv1.1 plus hKvβ1, or hKv1.4, and in Xenopus oocytes injected with the corresponding mRNA's. […] This “disinactivating” effect was potent and dose dependent, with an IC50 ranging from 0.3 μM to […] in CHO cells and a 3–5 fold higher IC50 of 0.9 μM in oocytes. […] In addition to the disinactivating effect of these compounds, a parallel dose-dependent increase in peak current occurred simultaneously with the loss of inactivation. This increase in peak current is probably at least partially due to the removal of inactivation, which uncovers the “true” peak current of the channels in the cell, although other mechanisms such as a stabilization of the open state of the channel may also be occurring. […] At 100 μM, however, Compound “A” blocked approximately 37% of the hKv1.1 current in CHO cells, thus high concentrations of some of these compounds are able to block Kv1.1 channels.
The mechanism of action of these Kv channel modulators (referred to herein as “disinactivators”) was further explored first by altering the voltage protocol so that single voltage steps to 50 mV were applied once every 20 sec (FIG. 8). […]

A further assay concerns PTZ-induced seizures. Description: Protection against pentylenetetrazol-induced seizures. In kind it is in vivo. Particulars: Mus musculus; mice, I.P., 30 min before PTZ 85 mg/kg s.c.; read-out: estimated ED50, protection against PTZ-induced seizures. How it is done:
FIG. 8. Protection against pentelenetetrazol-induced seizures in the mouse. Adult male mice were treated with valproic acid (FIG. 8a), Compound A (FIG. 8b), and Compound B (FIG. 8c) at doses from 30–178 mg/kg i.p. (n=8/dose). Thirty minutes later, these animals were challenged with pentelenetetrazol (85 mg/kg, SC) and observed for onset of seizures during a 30 minute test period. The number of animals protected from seizures was plotted versus dose of test compound and ED50s were estimated from this dose-response data.
The activities of Kv channel modulators were examined in several in vitro and in vivo seizure models. Field potential recordings were performed in the CA1 region of rat hippocampal slices treated with 10 μM bicuculline to induce multiple population spikes (Albus, H. and R. Williamson, Epilepsia (1998) 39(2):124–139). […] To test this hypothesis directly, the disinactivators were examined for their ability to protect mice from pentylenetetrazol-induced seizures. Mice were pretreated with Compound “D” or Compound “E” (30–300 mg/kg i.p.), valproic acid (156 mg/kg i.p.) or saline. Thirty minutes later, pentylenetetrazol (PTZ; 85 mg/kg, s.c.) was administered and the mice were monitored for development of spontaneous, recurrent seizures (a seizure was defined as loss of righting reflex; see Frey, H.-H. and I. Bartels, Epilepsy Res. (1997) 27:151–164). […]

T1 sequence (P22459 whole entry): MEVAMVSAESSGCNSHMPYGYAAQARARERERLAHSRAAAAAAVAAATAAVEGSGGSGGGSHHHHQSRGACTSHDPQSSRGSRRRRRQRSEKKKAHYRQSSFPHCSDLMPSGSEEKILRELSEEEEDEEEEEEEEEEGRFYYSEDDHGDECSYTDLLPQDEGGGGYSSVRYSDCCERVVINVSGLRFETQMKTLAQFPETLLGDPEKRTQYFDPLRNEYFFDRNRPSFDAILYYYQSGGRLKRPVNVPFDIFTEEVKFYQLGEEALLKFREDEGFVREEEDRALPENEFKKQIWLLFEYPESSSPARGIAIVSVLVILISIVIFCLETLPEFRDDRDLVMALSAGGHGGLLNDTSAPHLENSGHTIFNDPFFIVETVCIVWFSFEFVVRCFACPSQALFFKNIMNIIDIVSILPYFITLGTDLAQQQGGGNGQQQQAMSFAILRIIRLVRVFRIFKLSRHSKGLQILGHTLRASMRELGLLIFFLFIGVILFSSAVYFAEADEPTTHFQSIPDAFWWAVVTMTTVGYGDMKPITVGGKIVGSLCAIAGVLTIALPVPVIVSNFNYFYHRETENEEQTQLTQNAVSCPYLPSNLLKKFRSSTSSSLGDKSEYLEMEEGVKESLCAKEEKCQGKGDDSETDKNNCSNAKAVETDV

`OO` [Compound H2O2, H2O2]: the “disinactivation of hKv1.4 with glutathione applied” value on hKv1.4 channels is reported as “Glutathione was able to block the disinactivation”.
Take `CCCC(CCC)C(=O)O` [valproic acid]: the ED50 in the assay on PTZ-induced seizures was 141 mg/kg.
